Biological target: T1, human LPAR1 (Homo sapiens, UniProt Q92633)
T1 construct: expressed in transfected cells
Experiment: Test Example 1: antagonism against response of LPA-induced increase in intracellular Ca2+ concentration in RH7777 cells stably expressing human LPAR1
Format: cell-based
Conditions: RH7777 cells stably expressing human LPAR1; Fluo-4 fluorescence, FDSS6000; read-out: IC50 value (concentration producing 50% antagonism against response of LPA-induced increase in intracellular Ca2+ concentration) (converted)
Method in brief: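 Ca2+ flux read at 540 nm emission (480 nm excitation) after LPA addition to human LPAR1-expressing RH7777 cells exposed to compound for 30 min, 37 °C, pH 7.4 HEPES-buffered HBSS. Response relative to no-compound control after basal subtraction; IC50 fitted from concentration–response.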

T1 sequence (Q92633 whole entry): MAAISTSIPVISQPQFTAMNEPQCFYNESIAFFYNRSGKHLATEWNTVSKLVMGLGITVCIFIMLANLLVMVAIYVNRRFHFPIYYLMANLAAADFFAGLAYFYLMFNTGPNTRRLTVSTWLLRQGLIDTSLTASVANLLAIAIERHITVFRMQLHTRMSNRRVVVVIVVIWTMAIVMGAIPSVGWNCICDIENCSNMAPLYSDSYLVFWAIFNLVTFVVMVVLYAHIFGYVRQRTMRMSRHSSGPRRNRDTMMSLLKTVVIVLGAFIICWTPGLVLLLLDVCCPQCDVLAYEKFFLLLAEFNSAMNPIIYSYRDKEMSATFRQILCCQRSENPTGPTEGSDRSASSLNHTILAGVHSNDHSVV

Row | SMILES | IC50 [nM]
1 | COc1cc([C@@H](C)N(CCO[C@@H](C)c2ccccc2)C(=O)NC2(C(=O)O)CC(OC)C2)c(Cl)c(OC)c1C(C)=O (some centres unmarked) [Example 5-124] | 10.8
2 | CCOC1CC(NC(=O)N(CCOCc2ccccc2)[C@H](C)c2cc(OC)c(C(C)=O)c(OC)c2)(C(=O)O)C1 (some centres unmarked) [Example 5-125] | 10.9
3 | CCO[C@H]1C[C@@](NC(=O)N(CCO[C@@H](C)c2ccccc2)C(C)c2cc(OC)c(C(C)=O)c(OC)c2)(C(=O)O)C1 (some centres unmarked) [Example 5-126] | 26.1
4 | CCO[C@H]1C[C@@](NC(=O)N(CCOCc2ccccc2)C(C)c2cc(OC)c(C(C)=O)c(OC)c2Cl)(C(=O)O)C1 (some centres unmarked) [Example 5-127] | 3.94
5 | CCO[C@H]1C[C@@](NC(=O)N(CCO[C@@H](C)c2ccccc2)C(C)c2cc(OC)c(C(C)=O)c(OC)c2Cl)(C(=O)O)C1 (some centres unmarked) [Example 5-128] | 10.3
6 | COc1cc(C(C)N(CCOCc2ccccc2)C(=O)NC2(C(=O)O)CC2)c(Cl)c(OC)c1C1CC1 (centres unmarked) [Example 5-129] | 38.4
7 | COc1cc(C(C)N(CCOCc2ccccc2)C(=O)NC2(C(=O)O)CCC2)cc(OC)c1C(C)=O (centres unmarked) [Example 5-130] | 7.9
8 | COc1cc(C(C)N(CCOCc2ccccc2)C(=O)NC2(C(=O)O)CCC2)cc(OC)c1C1CC1 (centres unmarked) [Example 5-131] | 10.8
9 | COc1cc(C(C)N(CCOCc2ccccc2)C(=O)NC2(C(=O)O)CCC2)c(Cl)c(OC)c1C(C)=O (centres unmarked) [Example 5-132] | 4.97
10 | COc1cc(C(C)N(CCOCc2ccccc2)C(=O)NC2(C(=O)O)CCC2)c(C)c(OC)c1C(C)=O (centres unmarked) [Example 5-134] | 4.55
11 | COc1cc(C(C)N(CCOCc2ccccc2)C(=O)NC2(C(=O)O)CCC2)c(C)c(OC)c1C1CC1 (centres unmarked) [Example 5-135] | 1.88
12 | COc1cc(C(C)N(CCOCc2ccccc2)C(=O)NC2(C(=O)O)CCC2)c(C)c(OC)c1C (centres unmarked) [Example 5-136] | 30.7
13 | COc1cc(C(C)N(CCO[C@@H](C)c2ccccc2)C(=O)NC2(C(=O)O)CCC2)cc(OC)c1C1CC1 (some centres unmarked) [Example 5-137] | 8.18
14 | COc1cc(C(C)N(CCOC(C)c2ccccc2)C(=O)NC2(C(=O)O)CCC2)c(Cl)c(OC)c1C1CC1 (centres unmarked) [Example 5-138] | 3.21
15 | COc1cc(C(C)N(CCOC(C)c2ccccc2)C(=O)NC2(C(=O)O)CCC2)c(C)c(OC)c1C1CC1 (centres unmarked) [Example 5-139] | 2.95
16 | COc1cc(C(C)N(CCO[C@@H](C)c2ccccc2)C(=O)NC2(C(=O)O)CCC2)c(C)c(OC)c1C (some centres unmarked) [Example 5-140] | 10.8
17 | COc1cc(C(C)N(CCOCc2ccccc2)C(=O)NC2(C(=O)O)CC(F)(F)C2)cc(OC)c1C(C)=O (centres unmarked) [Example 5-141] | 3.49
18 | COc1cc(C(C)N(CCOCc2ccccc2)C(=O)NC2(C(=O)O)CC(F)(F)C2)cc(OC)c1C1CC1 (centres unmarked) [Example 5-142] | 1.74
19 | COc1cc(C(C)N(CCOCc2ccccc2)C(=O)NC2(C(=O)O)CC(F)(F)C2)c(Cl)c(OC)c1C(C)=O (centres unmarked) [Example 5-143] | 3.11
20 | COc1cc(C(C)N(CCOCc2ccccc2)C(=O)NC2(C(=O)O)CC(F)(F)C2)c(Cl)c(OC)c1C1CC1 (centres unmarked) [Example 5-144] | 1.11
21 | COc1cc(C(C)N(CCOCc2ccccc2)C(=O)NC2(C(=O)O)CC(F)(F)C2)c(C)c(OC)c1C(C)=O (centres unmarked) [Example 5-145] | 2.43
22 | COc1cc(C(C)N(CCOCc2ccccc2)C(=O)NC2(C(=O)O)CC(F)(F)C2)c(C)c(OC)c1C1CC1 (centres unmarked) [Example 5-146] | 1.02

Row | SMILES | IC50 [nM]
23 | COc1cc(C(C)N(CCOCc2ccccc2)C(=O)NC2(C(=O)O)CC(F)(F)C2)c(C)c(OC)c1C (centres unmarked) [Example 5-147] | 3.62
24 | COc1cc(C(C)N(CCO[C@@H](C)c2ccccc2)C(=O)NC2(C(=O)O)CC(F)(F)C2)cc(OC)c1C1CC1 (some centres unmarked) [Example 5-148] | 3.4
25 | COc1cc(C(C)N(CCO[C@@H](C)c2ccccc2)C(=O)NC2(C(=O)O)CC(F)(F)C2)c(Cl)c(OC)c1C1CC1 (some centres unmarked) [Example 5-149] | 2.58
26 | COc1cc(C(C)N(CCO[C@@H](C)c2ccccc2)C(=O)NC2(C(=O)O)CC(F)(F)C2)c(C)c(OC)c1C1CC1 (some centres unmarked) [Example 5-150] | 3.37
27 | COc1cc(C(C)N(CCO[C@@H](C)c2ccccc2)C(=O)NC2(C(=O)O)CC(F)(F)C2)c(C)c(OC)c1C (some centres unmarked) [Example 5-151] | 4.46
28 | COc1cc(C(C)N(CCOCc2ccccc2)C(=O)NC2(C(=O)O)CC(OC)C2)cc(OC)c1C1CC1 (centres unmarked) [Example 5-152] | 2.36
29 | COc1cc(C(C)N(CCOCc2ccccc2)C(=O)NC2(C(=O)O)CC(OC)C2)c(Cl)c(OC)c1C1CC1 (centres unmarked) [Example 5-153] | 0.961
30 | COc1cc(C(C)N(CCOCc2ccccc2)C(=O)NC2(C(=O)O)CC(OC)C2)c(C)c(OC)c1C(C)=O (centres unmarked) [Example 5-154] | 4.3
31 | COc1cc(C(C)N(CCOCc2ccccc2)C(=O)NC2(C(=O)O)CC(OC)C2)c(C)c(OC)c1C1CC1 (centres unmarked) [Example 5-155] | 1.1
32 | COc1cc(C(C)N(CCOC(C)c2ccccc2)C(=O)NC2(C(=O)O)CC(OC)C2)cc(OC)c1C1CC1 (centres unmarked) [Example 5-157] | 3.54
33 | COc1cc(C(C)N(CCOC(C)c2ccccc2)C(=O)N[C@]2(C(=O)O)C[C@@H](OC)C2)c(C)c(OC)c1C (some centres unmarked) [Example 5-160] | 4.55
34 | COc1cc(C(C)N(CCOCc2ccccc2)C(=O)NC2(C(=O)O)CC(OC)C2)c(Cl)c(OC)c1C1CC1 (centres unmarked) [Example 5-161] | 1.46
35 | CCOC1CC(NC(=O)N(CCOCc2ccccc2)C(C)c2cc(OC)c(C3CC3)c(OC)c2)(C(=O)O)C1 (centres unmarked) [Example 5-162] | 3.66
36 | CCOC1CC(NC(=O)N(CCOCc2ccccc2)C(C)c2cc(OC)c(C(C)=O)c(OC)c2C)(C(=O)O)C1 (centres unmarked) [Example 5-164] | 4.84
37 | CCOC1CC(NC(=O)N(CCOCc2ccccc2)C(C)c2cc(OC)c(C3CC3)c(OC)c2C)(C(=O)O)C1 (centres unmarked) [Example 5-165] | 2.05
38 | CCOC1CC(NC(=O)N(CCOC(C)c2ccccc2)C(C)c2cc(OC)c(C3CC3)c(OC)c2)(C(=O)O)C1 (centres unmarked) [Example 5-167] | 5.26
39 | CCOC1CC(NC(=O)N(CCOC(C)c2ccccc2)C(C)c2cc(OC)c(C3CC3)c(OC)c2C)(C(=O)O)C1 (centres unmarked) [Example 5-169] | 7.97
40 | CCOC1CC(NC(=O)N(CCOC(C)c2ccccc2)C(C)c2cc(OC)c(C)c(OC)c2C)(C(=O)O)C1 (centres unmarked) [Example 5-170] | 6.25
41 | COc1cc(C(C)N(CCOCc2ccccc2)C(=O)NC2(C(=O)O)CCOCC2)cc(OC)c1C(C)=O (centres unmarked) [Example 5-172] | 54.2
42 | COc1cc(C(C)N(CCOCc2ccccc2)C(=O)NC2(C(=O)O)CCOCC2)cc(OC)c1C1CC1 (centres unmarked) [Example 5-173] | 34.7
43 | COc1cc(C(C)N(CCOCc2ccccc2)C(=O)NC2(C(=O)O)CCOCC2)c(Cl)c(OC)c1C(C)=O (centres unmarked) [Example 5-174] | 30
44 | COc1cc(C(C)N(CCOCc2ccccc2)C(=O)NC2(C(=O)O)CCOCC2)c(Cl)c(OC)c1C1CC1 (centres unmarked) [Example 5-175] | 4.93

Row | SMILES | IC50 [nM]
45 | COc1cc(C(C)N(CCOCc2ccccc2)C(=O)NC2(C(=O)O)CCOCC2)c(C)c(OC)c1C1CC1 (centres unmarked) [Example 5-177] | 2.77
46 | COc1cc(C(C)N(CCO[C@@H](C)c2ccccc2)C(=O)NC2(C(=O)O)CCOCC2)c(Cl)c(OC)c1C1CC1 (some centres unmarked) [Example 5-180] | 6.4
47 | COc1cc(C(C)N(CCO[C@@H](C)c2ccccc2)C(=O)NC2(C(=O)O)CCOCC2)c(C)c(OC)c1C1CC1 (some centres unmarked) [Example 5-181] | 3.51
48 | CCOc1cc(C(C)N(CCOCc2ccccc2)C(=O)NC2(C(=O)O)CC2)c(Cl)c(OCC)c1C(C)=O (centres unmarked) [Example 5-184] | 2.53
49 | CCOc1cc(C(C)N(CCOCc2ccccc2)C(=O)NC2(C(=O)O)CC2)c(Cl)c(OCC)c1C1CC1 (centres unmarked) [Example 5-185] | 0.919
50 | CCOc1cc(C(C)N(CCOCc2ccccc2)C(=O)NC2(C(=O)O)CC2)c(C)c(OCC)c1C(C)=O (centres unmarked) [Example 5-186] | 2.63
51 | CCOc1cc(C(C)N(CCOC(C)c2ccccc2)C(=O)NC2(C(=O)O)CC2)c(Cl)c(OCC)c1C(C)=O (centres unmarked) [Example 5-187] | 4.16
52 | CCOc1cc(C(C)N(CCOCc2ccccc2)C(=O)NC2(C(=O)O)CCC2)c(Cl)c(OCC)c1C(C)=O (centres unmarked) [Example 5-189] | 1.46
53 | CCOc1cc(C(C)N(CCOCc2ccccc2)C(=O)NC2(C(=O)O)CCC2)c(Cl)c(OCC)c1C1CC1 (centres unmarked) [Example 5-190] | 0.817
54 | CCOc1cc(C(C)N(CCOCc2ccccc2)C(=O)NC2(C(=O)O)CCC2)c(C)c(OCC)c1C(C)=O (centres unmarked) [Example 5-191] | 1.45
55 | CCOc1cc(C(C)N(CCOCc2ccccc2)C(=O)NC2(C(=O)O)CCC2)c(C)c(OCC)c1C1CC1 (centres unmarked) [Example 5-192] | 0.47
56 | CCOc1cc(C(C)N(CCOCc2ccccc2)C(=O)NC2(C(=O)O)CCC2)c(C)c(OCC)c1C (centres unmarked) [Example 5-193] | 2
57 | CCOc1cc(C(C)N(CCOC(C)c2ccccc2)C(=O)NC2(C(=O)O)CCC2)c(C)c(OCC)c1C (centres unmarked) [Example 5-194] | 2.15
58 | CCOc1cc(C(C)N(CCOC(C)c2ccccc2)C(=O)NC2(C(=O)O)CCC2)c(Cl)c(OCC)c1C(C)=O (centres unmarked) [Example 5-195] | 2.07
59 | CCOc1cc(C(C)N(CCOCc2ccccc2)C(=O)NC2(C(=O)O)CC(F)(F)C2)cc(OCC)c1C1CC1 (centres unmarked) [Example 5-196] | 1.41
60 | CCOc1cc(C(C)N(CCOCc2ccccc2)C(=O)NC2(C(=O)O)CC(F)(F)C2)c(Cl)c(OCC)c1C1CC1 (centres unmarked) [Example 5-197] | 1.04
61 | CCOc1cc(C(C)N(CCCCc2ccccc2)C(=O)N[C@]2(C(=O)O)C[C@@H](OC)C2)c(C)c(OCC)c1C(C)=O (some centres unmarked) [Example 5-198] | 2.9
62 | CCOc1cc(C(C)N(CCOCc2ccccc2)C(=O)NC2(C(=O)O)CC(OC)C2)cc(OCC)c1C1CC1 (centres unmarked) [Example 5-199] | 0.761
63 | CCOc1cc(C(C)N(CCOCc2ccccc2)C(=O)NC2(C(=O)O)CC(OC)C2)c(Cl)c(OCC)c1C1CC1 (centres unmarked) [Example 5-200] | 0.548
64 | CCOc1cc(C(C)N(CCOCc2ccccc2)C(=O)NC2(C(=O)O)CC(OC)C2)c(C)c(OCC)c1C1CC1 (centres unmarked) [Example 5-201] | 0.712
65 | CCOc1cc(C(C)N(CCO[C@@H](C)c2ccccc2)C(=O)NC2(C(=O)O)CC(OC)C2)c(Cl)c(OCC)c1C1CC1 (some centres unmarked) [Example 5-202] | 1.62

Reference: US12338203B2 (TAISHO PHARMACEUTICAL CO., LTD., priority 2019, dated 2025)
